Experimental findings from article PMC2868067 (Molecular cancer therapeutics, 2010) are described below.

pIC50: −log10 of the molar value.

The term pIC50 denotes the IC50 on a negative log10 scale, so that one unit is a factor of ten.

This assay concerns kinases in the Src family. The settings on record: read-out: apparent IC50, Srctide; multiplexed, treated K-562 lysates (Figure 6A).

For `Cc1nc(Nc2ncc(C(=O)Nc3c(C)cccc3Cl)s2)cc(N2CCN(CCO)CC2)n1` [dasatinib, N-(2-chloro-6-methyl-phenyl)-2-(6-(4-(2-hydroxyethyl)-piperazin-1-yl)-2-methylpyrimidin-4-ylamino)thiazole-5-carboxamide], the pIC50 was 8.96.
